Results taken from US10039795B2, “Codon optimized recombinant phage and methods of using same” (priority 2014, dated 2018).
Read-outs that look alike come from different tables or passages of the source.

Experiments:
Assay type in all cases: cell-based
Listeria = test system: Listeria
[1] = test system: stressed bacterial cells (Listeria); conditions: for effect on infection rate or enzymatic activity: antifungal agent added to base medium
Procedure: Media were screened for the ability to support high infection rate and high signal intensity following infection with phage encoding a luciferase marker. Bacterial cells were purposefully stressed by way of drying for 18 hours on a stainless steel table, followed by re-suspension in brain-heart infusion medium (BHI) for 30 minutes. The recovered cells were then infected with phage containing a luciferase marker for 6 hours followed by testing of the enzymatic activity using unpurified phage lysate and NanoLuc reagent.
BHI and TSB media were further titrated to assess whether there was an increase in RLU at different concentrations of base media.
Select components were added to the media in order to remedy known stressors to cells, and to reduce the possibility for other chemicals interfering with the test results. To this end, lithium chloride was added at defined concentrations to the selected 1×TSB base medium, followed by infecting the cells with a luciferase containing phage, and lastly by assaying the RLU detectable as a function of the percentage of lithium chloride added to the media. Lithium chloride was selected as an additive in order to overcome, prevent or limit growth of competing biologicals. […] (See FIG. 11).
Components selected to overcome cell starvation and oxidative stress, glucose and yeast extract, respectively, were titrated in 1×TSB, followed by infection of the bacteria with luciferase containing phage, and lastly by assaying the RLU detectable as a function of the percentage of either glucose or yeast extract.
Antifungal agents were also added to the base medium and tested in order to determine whether there is a decrease in RLU activity, either as a result of loss of enzyme activity or because of reduced infection ability. The anti-fungal agents tested included cycloheximide solution in DMSO.
The effect of divalent cations added to Formulation-1 was assessed. MgSO4 or CaCl2 was added to Formulation-1, followed by infection of bacteria with luciferase encoding phage, and assessment of resultant RLU.
The resultant formulation that incorporates all of the components of Formulation-1A, with the addition of HEPES, is herein referred to as Formulation-2 or as NIB-12.

[2] = test system: bacteria exposed to luciferase encoding phage; experiment: Phage infection and enzyme activity across media formulations (RLU); conditions: comparison across media formulations and additives
Procedure: A systematic comparison of RLU values as a function of additive component was performed on various media formulations. (See FIG. 15). The effects of different additives on both enzymatic activity, as well as infection ability, was measured and compared by way of assessing RLU across the different conditions.

1893 cell-type = experiment: Sanitizer neutralization assay, phage infection step; conditions: added to NIB-14; 2 mM sodium metabisulfite or 0.05% sodium thiosulfate
Procedure: Following the 30 minute incubation period, the luciferase marker containing phage was added in BHI medium, and the samples were further allowed to incubate for an additional 3 hours at 30° C. The enzyme was then detected by the addition of the NanoGlo luciferin substrate and luminescence measurement. […] Another variant of this assay involved the direct incubation of the sterilization chemical with the NanoGlo luciferin substrate in the absence of either cells, phage or enzyme.

[3] = test system: bacterial cells (Listeria); experiment: RLU after phage infection in the presence of increasing quaternary ammonium salts; conditions: additive in Listeria Growth Broth
From the text: Bacterial cells were exposed to luciferase encoding phage in the following buffers, Listeria growth broth, Listeria growth broth with TWEEN®-80, or to Listeria growth broth with the addition of both TWEEN®-80 and lecithin. The RLU values are shown on the y-axis.
The addition of TWEEN®-80, either alone or in combination with lecithin, to the Formulation-2 (NIB-12) medium allowed for protection of the samples from interference by quaternary ammonium salts. (See FIG. 14). […] In this case, there was a sustained, detectable RLU in the presence of up to 62.5 ppm quaternary ammonium salts. The amount of resistance to quaternary ammonium salts was further increased through the addition of both lecithin and TWEEN®-80. With the addition of both reagents to Listeria Growth Broth, there was detectable RLU up to 125 ppm quaternary ammonium salts. Another preferred embodiment of the media contains 1.5% of TWEEN®-80 and 0.22% of lecithin.

[4] = component of aqueous solution (infection buffer)

Q: With `O=C([O-])CC(O)(CC(=O)[O-])C(=O)[O-].[Na+].[Na+].[Na+]` [Sodium citrate] as the molecule, how does the “Effect on Listeria Detection” value (Listeria; [4]) read?
A: negative

Q: `O=S(=O)(O)CCN1CCN(CCO)CC1` [HEPES, pH 7.4, HEPES] was tested. Which “Effect on Listeria Detection” value (Listeria; [4]) did it give?
A: positive

Q: And the “ideal HEPES concentration for high RLU activity” value ([1]; titrated into Formulation-1A, 3 hour and 6 hour time points)?
A: 20 mM

Q: Which “Effect on Listeria Detection” value (Listeria; [4]) does the source give for `OC[C@H]1O[C@@](CO)(O[C@H]2O[C@H](CO)[C@@H](O)[C@H](O)[C@H]2O)[C@@H](O)[C@@H]1O` [Sucrose] here?
A: neutral

Q: For `O=S(=O)([O-])[O-].[Mg+2]` [Magnesium sulphate], which “Effect on Listeria Detection” value (Listeria; [4]) is on record?
A: positive

Q: What about the “RLU activity on addition of divalent cation” value ([1]; added to Formulation-1, in comparison to CaCl2) of the same molecule?
A: marked increase

Q: What about the “infection ability (RLU)” value [2] of the same molecule?
A: large impact in increasing infection ability

Q: Which results are given for `O=S([O-])([O-])=S.[Na+].[Na+]` [Sodium thiosulfate]?
A: effect of oxygen scavenger on oxidizing effect of peroxide (1893 cell-type): reduced the oxidizing effect of peroxide; Effect on Listeria Detection (Listeria): negative

Q: With `[Ca+2].[Cl-].[Cl-]` [Calcium chloride] as the molecule, how does the “Effect on Listeria Detection” value (Listeria) read?
A: neutral

Q: Ferric citrate was tested. Which “Effect on Listeria Detection” value (Listeria; [4]) did it give?
A: neutral

Q: How did the “Effect on Listeria Detection” value (Listeria; [4]) turn out when Triton X-100 was run?
A: negative

Q: How did the “Effect on Listeria Detection” value (Listeria; [4]) turn out when `C[N+](C)(C)CCOP(=O)(O)O.[Cl-]` [Phosphocholine chloride] was run?
A: negative

Q: With `O=C([O-])CS.[Na+]` [Sodium thioglycollate] as the molecule, how does the “Effect on Listeria Detection” value (Listeria; [4]) read?
A: negative

Q: With Ferric sulfate as the molecule, how does the “Effect on Listeria Detection” value (Listeria; [4]) read?
A: neutral

Q: How did the “Effect on Listeria Detection” value (Listeria; [4]) turn out when `O=C([O-])CC(=O)[O-].[Na+].[Na+]` [Sodium malonate] was run?
A: negative

Q: `Cc1ncc(C[n+]2csc(CCO)c2C)c(N)n1` [Thiamine] was tested. Which “Effect on Listeria Detection” value (Listeria; [4]) did it give?
A: neutral

Q: How did the “Effect on Listeria Detection” value (Listeria; [4]) turn out when `O=C(O)CCC(=O)C(=O)O` [Alpha-ketoglutarate] was run?
A: negative

Q: `O=S([O-])S(=O)(=O)[O-].[Na+].[Na+]` [Sodium metabisulfite] was tested. Which “effect of oxygen scavenger on oxidizing effect of peroxide” value (1893 cell-type) did it give?
A: reduced the oxidizing effect of peroxide

Q: And the “Effect on Listeria Detection” value (Listeria; [4])?
A: positive

Q: How did the “Effect on Listeria Detection” value (Listeria; [4]) turn out when Polysorbate 20 was run?
A: negative

Q: What does the source list for `[Cl-].[Li+]` [Lithium chloride]?
A: Effect on Listeria Detection (Listeria; [4]): optimized; additive concentration giving highest RLU / selected on RLU levels ([1]; titrated in 1×TSB, 3 hour and 6 hour assay points): 0.25%

Q: With `O=S(=O)(O)CCCN1CCOCC1` [MOPS, pH 7.2, MOPS] as the molecule, how does the “Effect on Listeria Detection” value (Listeria; [4]) read?
A: positive

Q: How did the “effect on infection rate or enzymatic activity” value [1] turn out when `C[S+](C)[O-]` [DMSO] was run?
A: Neither cycloheximide nor DMSO resulted in a decrease

Q: How did the “Effect on Listeria Detection” value (Listeria; [4]) turn out when `N[C@@H](CCC(=O)[O-])C(=O)[O-].[Na+].[Na+]` [Sodium glutamate] was run?
A: neutral

Q: With Polysorbate 80 as the molecule, how does the “quaternary ammonium salts concentration up to which RLU is detectable” value [3] read?
A: up to 62.5 ppm

Q: And the “Effect on Listeria Detection” value (Listeria; [4])?
A: positive

Q: And the “infection ability (RLU)” value [2]?
A: large impact in increasing infection ability

Q: How did the “Effect on Listeria Detection” value (Listeria; [4]) turn out when O-octophosphorylcholine was run?
A: negative

Q: For Acriflavin, which “Effect on Listeria Detection” value (Listeria; [4]) is on record?
A: negative

Q: For `CC(=O)C(=O)[O-].[Na+]` [Sodium pyruvate], which “Effect on Listeria Detection” value (Listeria; [4]) is on record?
A: positive

Q: What about the “RLU activity on addition of pyruvate” value ([1]; HEPES titration experiment) of the same molecule?
A: further increased RLU activity

Q: What about the “infection ability (RLU)” value [2] of the same molecule?
A: large impact in increasing infection ability

Q: For `CCn1cc(C(=O)O)c(=O)c2ccc(C)nc21` [Nalidixic acid, reference compound], which “Effect on Listeria Detection” value (Listeria; [4]) is on record?
A: positive

Q: How did the “Effect on Listeria Detection” value (Listeria; [4]) turn out when `CC(C)(O/N=C(\C(=O)N[C@@H]1C(=O)N2C(C(=O)[O-])=C(C[n+]3ccccc3)CS[C@H]12)c1csc(N)n1)C(=O)O` [Ceftazidime, reference compound] was run?
A: positive

Q: `O=S(=O)([O-])[O-].[Fe+2]` [Ferrous sulphate] was tested. Which “Effect on Listeria Detection” value (Listeria; [4]) did it give?
A: negative

Q: Which “Effect on Listeria Detection” value (Listeria; [4]) does the source give for `C[C@@H]1C[C@@H]([C@H](O)CC2CC(=O)NC(=O)C2)C(=O)[C@@H](C)C1` [Cycloheximide] here?
A: neutral

Q: What about the “effect on infection rate or enzymatic activity” value [1] of the same molecule?
A: Neither cycloheximide nor DMSO resulted in a decrease

Q: With `OCC(O)CO` [Glycerol] as the molecule, how does the “Effect on Listeria Detection” value (Listeria; [4]) read?
A: neutral

Q: For Ferric ammonium citrate, which “Effect on Listeria Detection” value (Listeria; [4]) is on record?
A: neutral

Q: `CO[C@@]1(NC(=O)C(C(=O)O)c2ccc(O)cc2)C(=O)N2C(C(=O)O)=C(CSc3nnnn3C)CO[C@@H]21` (stereo partly drawn) [Moxalactam, reference compound] was tested. Which “Effect on Listeria Detection” value (Listeria; [4]) did it give?
A: neutral
